Measured values from ChEMBL document CHEMBL1287676, “Oleanane-type triterpenoids from Panax stipuleanatus and their anticancer activities” (Bioorg Med Chem Lett, 2010).
Calls of active or inactive are those of the source. The rule behind the calls is not given here.

Key:
HL-60 [1] = test: Cytotoxicity against human HL60 cells by MTT assay; format: functional, cell-based
HCT-116 [2] = test: Cytotoxicity against human HCT116 cells by MTT assay; format: functional, cell-based
HL-60 [3] = test: Induction of apoptosis in human HL60 cells assessed as chromatin condensation at IC50 concentration after 24 to 48 hrs using Hoechst 33342 staining by fluorescence microscope; format: functional, cell-based
HL-60 [4] = test: Induction of apoptosis in human HL60 cells assessed as membrane blebbing at IC50 concentration after 24 to 48 hrs using Hoechst 33342 staining by fluorescence microscope; format: functional, cell-based
HL-60 [5] = test: Induction of apoptosis in human HL60 cells assessed as cell shrinkage at IC50 concentration after 24 to 48 hrs using Hoechst 33342 staining by fluorescence microscope; format: functional, cell-based
HCT-116 [6] = test: Induction of apoptosis in human HCT116 cells assessed as chromatin condensation at IC50 concentration after 24 to 48 hrs using Hoechst 33342 staining by fluorescence microscope; format: functional, cell-based
HCT-116 [7] = test: Induction of apoptosis in human HCT116 cells assessed as membrane blebbing at IC50 concentration after 24 to 48 hrs using Hoechst 33342 staining by fluorescence microscope; format: functional, cell-based
HCT-116 [8] = test: Induction of apoptosis in human HCT116 cells assessed as cell shrinkage at IC50 concentration after 24 to 48 hrs using Hoechst 33342 staining by fluorescence microscope; format: functional, cell-based
HCT-116 [9] = test: Induction of apoptosis in human HCT116 cells assessed as increase in induction of PARP cleavage by Western blotting; format: functional, cell-based
HCT-116 [10] = test: Induction of apoptosis in human HCT116 cells assessed as increase in expression of DR5 by Western blotting; format: functional, cell-based
HCT-116 [11] = test: Induction of apoptosis in human HCT116 cells assessed as decrease in expression of BCL-2 by Western blotting; format: functional, cell-based
HCT-116 [12] = test: Induction of apoptosis in human HCT116 cells assessed as increase in expression of Bax by Western blotting; format: functional, cell-based
HCT-116 [13] = test: Induction of apoptosis in human HCT116 cells assessed as increase in caspase-9 activation by Western blotting; format: functional, cell-based
[14] = molecular target: Mitogen-activated protein kinase; ERK1/ERK2 (Homo sapiens) (UniProt P27361+P28482); test: Activation of ERK1/2 in human HCT116 cells assessed as phosphorylated ERK1/2 level by Western blotting; format: cell-based; conditions: HCT-116
Sequence of Mitogen-activated protein kinase; ERK1/ERK2 (Homo sapiens) (P27361 whole entry, looked up): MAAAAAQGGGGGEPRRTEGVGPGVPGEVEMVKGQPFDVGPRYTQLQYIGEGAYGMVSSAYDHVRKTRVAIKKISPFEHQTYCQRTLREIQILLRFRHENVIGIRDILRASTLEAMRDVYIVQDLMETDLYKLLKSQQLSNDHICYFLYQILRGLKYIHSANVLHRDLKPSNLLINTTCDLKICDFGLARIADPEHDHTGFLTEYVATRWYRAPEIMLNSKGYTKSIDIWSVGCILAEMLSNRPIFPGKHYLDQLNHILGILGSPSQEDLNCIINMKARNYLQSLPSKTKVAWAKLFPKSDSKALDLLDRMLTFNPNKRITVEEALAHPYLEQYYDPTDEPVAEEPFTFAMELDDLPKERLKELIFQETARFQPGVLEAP
Sequence of Mitogen-activated protein kinase; ERK1/ERK2 (Homo sapiens) (P28482 whole entry, looked up): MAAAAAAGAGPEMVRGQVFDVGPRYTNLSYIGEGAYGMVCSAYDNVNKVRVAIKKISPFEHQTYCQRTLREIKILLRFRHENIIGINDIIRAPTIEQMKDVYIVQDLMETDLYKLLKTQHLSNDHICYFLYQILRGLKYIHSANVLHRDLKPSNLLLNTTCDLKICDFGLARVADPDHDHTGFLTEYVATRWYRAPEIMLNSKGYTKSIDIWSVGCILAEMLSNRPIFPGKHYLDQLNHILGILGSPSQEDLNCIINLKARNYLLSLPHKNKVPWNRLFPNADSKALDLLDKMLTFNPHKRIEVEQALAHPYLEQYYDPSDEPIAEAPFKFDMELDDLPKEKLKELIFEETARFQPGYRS

Compound | IC50 (HL-60 [1]) [µM] | IC50 (HCT-116 [2]) [µM] | other results
CC1(C)CC[C@]2(C(=O)O[C@@H]3O[C@H](CO)[C@@H](O)[C@H](O)[C@H]3O)CC[C@]3(C)C(=CC[C@@H]4[C@@]5(C)CC[C@H](O[C@@H]6O[C@H](C(=O)O)[C@@H](O)[C@H](O[C@@H]7O[C@H](CO)[C@@H](O)[C@H](O)[C@H]7O)[C@H]6O)C(C)(C)[C@@H]5CC[C@]43C)[C@@H]2C1 | 73 | > 100 | –
COC(=O)[C@H]1O[C@@H](O[C@H]2CC[C@]3(C)[C@H]4CC=C5[C@@H]6CC(C)(C)CC[C@]6(C(=O)O[C@@H]6O[C@H](CO)[C@@H](O)[C@H](O)[C@H]6O)CC[C@@]5(C)[C@]4(C)CC[C@H]3C2(C)C)[C@H](O)[C@@H](O[C@@H]2O[C@H](CO)[C@@H](O)[C@H](O)[C@H]2O)[C@@H]1O | 83.9 | > 100 | –
CC1(C)CC[C@]2(C(=O)O[C@@H]3O[C@H](CO)[C@@H](O)[C@H](O)[C@H]3O)CC[C@]3(C)C(=CC[C@@H]4[C@@]5(C)CC[C@H](O[C@@H]6O[C@H](CO)[C@@H](O)[C@H](O)[C@H]6O[C@H]6OC[C@@H](O)[C@H](O)[C@H]6O)C(C)(C)[C@@H]5CC[C@]43C)[C@@H]2C1 | > 100 | 75.9 | –
COC(=O)[C@H]1O[C@@H](O[C@H]2CC[C@]3(C)[C@H]4CC=C5[C@@H]6CC(C)(C)CC[C@]6(C(=O)O[C@@H]6O[C@H](CO)[C@@H](O)[C@H](O)[C@H]6O)CC[C@@]5(C)[C@]4(C)CC[C@H]3C2(C)C)[C@H](O)[C@@H](O)[C@@H]1O[C@H]1O[C@@H](CO)[C@H](O)[C@H]1O [ARALOSIDE A METHYL ESTER] | 63.4 | > 100 | –
CC1(C)CC[C@]2(C(=O)O[C@@H]3O[C@H](CO)[C@@H](O)[C@H](O)[C@H]3O)CC[C@]3(C)C(=CC[C@@H]4[C@@]5(C)CC[C@H](O[C@@H]6O[C@H](C(=O)O)[C@@H](O)[C@H](O)[C@H]6O)C(C)(C)[C@@H]5CC[C@]43C)[C@@H]2C1 [CHIKUSETSUSAPONIN IVA] | 76.2 | 78.1 | –
O=C1c2c(O)ccc(O)c2C(=O)c2c(NCCNCCO)ccc(NCCNCCO)c21 [MITOXANTRONE] | 7.5 | 3.96 | –
CC1(C)CC[C@]2(C(=O)O)CC[C@]3(C)C(=CC[C@@H]4[C@@]5(C)CC[C@H](O)C(C)(C)[C@@H]5CC[C@]43C)[C@@H]2C1 [OLEANOLIC_ACID] | 77.5 | 4.8 | –
COC(=O)[C@H]1O[C@@H](O[C@H]2CC[C@]3(C)[C@H]4CC=C5[C@@H]6CC(C)(C)CC[C@]6(C(=O)O)CC[C@@]5(C)[C@]4(C)CC[C@H]3C2(C)C)[C@H](O[C@H]2OC[C@@H](O)[C@H](O)[C@H]2O)[C@@H](O)[C@@H]1O [PESUDOGINSENOSIDE RP1 METHYL ESTER] | 41.5 | 6.5 | Activity (HL-60 [3]): Active; Activity (HL-60 [4]): Active; Activity (HL-60 [5]): Active; Activity (HCT-116 [6]): Active; Activity (HCT-116 [7]): Active; Activity (HCT-116 [8]): Active; Activity (HCT-116 [9]): Active; Activity (HCT-116 [10]): Active; Activity (HCT-116 [11]): Active; Activity (HCT-116 [12]): Active; Activity (HCT-116 [13]): Active; Activity [14]: Active
COC(=O)[C@H]1O[C@@H](O[C@H]2CC[C@]3(C)[C@H]4CC=C5[C@@H]6CC(C)(C)CC[C@]6(C(=O)O[C@@H]6O[C@H](CO)[C@@H](O)[C@H](O)[C@H]6O)CC[C@@]5(C)[C@]4(C)CC[C@H]3C2(C)C)[C@H](O[C@H]2OC[C@@H](O)[C@H](O)[C@H]2O)[C@@H](O)[C@@H]1O [PSEUDOGINSENOSIDE RT1 METHYL ESTER] | > 100 | > 100 | –
CC1(C)CC[C@]2(C(=O)O[C@@H]3O[C@H](CO)[C@@H](O)[C@H](O)[C@H]3O)CC[C@]3(C)C(=CC[C@@H]4[C@@]5(C)CC[C@H](O[C@@H]6O[C@H](C(=O)O)[C@@H](O)[C@H](O)[C@H]6O[C@H]6OC[C@@H](O)[C@H](O)[C@H]6O)C(C)(C)[C@@H]5CC[C@]43C)[C@@H]2C1 [PSEUDOGINSENOSIDE RT1] | 91.2 | > 100 | –
COC(=O)[C@H]1O[C@@H](O[C@H]2CC[C@]3(C)[C@H]4CC=C5[C@@H]6CC(C)(C)CC[C@]6(C(=O)O)CC[C@@]5(C)[C@]4(C)CC[C@H]3C2(C)C)[C@H](O)[C@@H](O[C@@H]2O[C@H](CO)[C@@H](O)[C@H](O)[C@H]2O)[C@@H]1O [SPINASAPONIN A METHYL ESTER] | 4.44 | 0.63 | Activity (HL-60 [3]): Active; Activity (HL-60 [4]): Active; Activity (HL-60 [5]): Active; Activity (HCT-116 [6]): Active; Activity (HCT-116 [7]): Active; Activity (HCT-116 [8]): Active; Activity (HCT-116 [9]): Active; Activity (HCT-116 [10]): Active; Activity (HCT-116 [11]): Active; Activity (HCT-116 [12]): Active; Activity (HCT-116 [13]): Active; Activity [14]: Active
COC(=O)[C@H]1O[C@@H](O[C@H]2CC[C@]3(C)[C@H]4CC=C5[C@@H]6CC(C)(C)CC[C@]6(C(=O)O[C@@H]6O[C@H](CO)[C@@H](O)[C@H](O)[C@H]6O)CC[C@@]5(C)[C@]4(C)CC[C@H]3C2(C)C)[C@H](O)[C@@H](O[C@@H]2O[C@H](CO)[C@@H](O)[C@H](O)[C@H]2O)[C@@H]1O[C@H]1O[C@@H](CO)[C@H](O)[C@H]1O [STIPULEANOSIDE R2 METHYL ESTER] | 67.1 | > 100 | –
CC1(C)CC[C@]2(C(=O)O[C@@H]3O[C@H](CO)[C@@H](O)[C@H](O)[C@H]3O)CC[C@]3(C)C(=CC[C@@H]4[C@@]5(C)CC[C@H](O[C@@H]6O[C@H](C(=O)O)[C@@H](O[C@H]7O[C@@H](CO)[C@H](O)[C@H]7O)[C@H](O[C@@H]7O[C@H](CO)[C@@H](O)[C@H](O)[C@H]7O)[C@H]6O)C(C)(C)[C@@H]5CC[C@]43C)[C@@H]2C1 [STIPULEANOSIDE R2] | > 100 | > 100 | –
